According to PubChem BioAssay AID1963425 (Molecular Pharmacology Branch, DTP, NCI, 2024):

Tested on: 323965-272-R-J2-PDC complex spheroid growth, % test/control
Experiment: Anticancer human tumor 323965-272-R-J2-PDC patient-derived pancreatic carcinoma cell line growth inhibition [Asc]
Details: for IC50: curve of first compound; for viability, T/C: stronger effect = lower value
Outline: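 Complex spheroids combining tumor cells with HUVEC endothelial cells and human MSCs, at 37 degrees C, 5% CO2; agents tested alone or combined, half-log dilutions from at or near clinical Cmax, or 10 microM if Cmax unknown.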

[1] = second compound 0.0316 µM, first compound 0.00316 µM
[2] = second compound 0.0316 µM, first compound 0.01 µM
[3] = second compound 0.0316 µM, first compound 0.0316 µM
[4] = second compound 0.0316 µM, first compound 0.1 µM
[5] = second compound 0.0316 µM, first compound 0.316 µM
[6] = second compound 0.0316 µM, first compound 1 µM
[7] = second compound 0.1 µM, first compound 0.00316 µM
[8] = second compound 0.1 µM, first compound 0.01 µM
[9] = second compound 0.1 µM, first compound 0.0316 µM
[10] = second compound 0.1 µM, first compound 0.1 µM
[11] = second compound 0.1 µM, first compound 0.316 µM
[12] = second compound 0.1 µM, first compound 1 µM
[13] = second compound 0.316 µM, first compound 0.00316 µM
[14] = second compound 0.316 µM, first compound 0.01 µM
[15] = second compound 0.316 µM, first compound 0.0316 µM
[16] = second compound 0.316 µM, first compound 0.1 µM
[17] = second compound 0.316 µM, first compound 0.316 µM
[18] = second compound 0.316 µM, first compound 1 µM
[19] = second compound 1 µM, first compound 0.00316 µM
[20] = second compound 1 µM, first compound 0.01 µM
[21] = second compound 1 µM, first compound 0.0316 µM
[22] = second compound 1 µM, first compound 0.1 µM
[23] = second compound 1 µM, first compound 0.316 µM
[24] = second compound 1 µM, first compound 1 µM
[25] = second compound 3.16 µM, first compound 0.00316 µM
[26] = second compound 3.16 µM, first compound 0.01 µM
[27] = second compound 3.16 µM, first compound 0.0316 µM
[28] = second compound 3.16 µM, first compound 0.1 µM
[29] = second compound 3.16 µM, first compound 0.316 µM
[30] = second compound 3.16 µM, first compound 1 µM
[31] = second compound 10 µM, first compound 0.00316 µM
[32] = second compound 10 µM, first compound 0.01 µM
[33] = second compound 10 µM, first compound 0.0316 µM
[34] = second compound 10 µM, first compound 0.1 µM
[35] = second compound 10 µM, first compound 0.316 µM
[36] = second compound 10 µM, first compound 1 µM
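Further: compound exposure lasted 7 days starting three days after spheroid seeding.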
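Wherever viability, T/C is given: 100% = DMSO vehicle control wells with viability set relative to vehicle.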

## CCN1CCN(Cc2ccc(Nc3ncc(F)c(-c4cc(F)c5nc(C)n(C(C)C)c5c4)n3)nc2)CC1 + Cc1c(S(C)(=O)=O)c(-c2cc(F)cc(N3CCN(c4ccc(NS(=O)(=O)c5ccc(NC(CCN6CCC(C(=O)OCCCP(=O)(O)O)CC6)CSc6ccccc6)c(S(=O)(=O)C(F)(F)F)c5)cc4)CC3)c2)c(-c2ccc(Cl)cc2)n1C(C)C
Second compound 0.0316 µM
  IC50: > 1000 nM
Second compound 0.1 µM
  IC50: > 1000 nM
Second compound 0.316 µM
  IC50: > 1000 nM
Second compound 1 µM
  IC50: > 1000 nM
Second compound 3.16 µM
  IC50: > 1000 nM
Second compound 10 µM
  IC50: > 1000 nM
[1]
  viability, T/C: 110%
[2]
  viability, T/C: 98.8%
[3]
  viability, T/C: 106%
[4]
  viability, T/C: 90.4%
[5]
  viability, T/C: 70.5%
[6]
  viability, T/C: 67.7%
[7]
  viability, T/C: 102%
[8]
  viability, T/C: 109%
[9]
  viability, T/C: 95.1%
[10]
  viability, T/C: 82.5%
[11]
  viability, T/C: 70.7%
[12]
  viability, T/C: 73.6%
[13]
  viability, T/C: 103%
[14]
  viability, T/C: 102%
[15]
  viability, T/C: 100%
[16]
  viability, T/C: 81%
[17]
  viability, T/C: 72.5%
[18]
  viability, T/C: 78.1%
[19]
  viability, T/C: 102%
[20]
  viability, T/C: 93.1%
[21]
  viability, T/C: 84.2%
[22]
  viability, T/C: 76.6%
[23]
  viability, T/C: 72.8%
[24]
  viability, T/C: 70.3%
[25]
  viability, T/C: 83.9%
[26]
  viability, T/C: 86.2%
[27]
  viability, T/C: 77.8%
[28]
  viability, T/C: 65.8%
[29]
  viability, T/C: 67.5%
[30]
  viability, T/C: 61.2%
[31]
  viability, T/C: 76.4%
[32]
  viability, T/C: 74.4%
[33]
  viability, T/C: 64.1%
[34]
  viability, T/C: 66.5%
[35]
  viability, T/C: 71.3%
[36]
  viability, T/C: 70.3%

## Cn1ncnc1[C@H]1c2n[nH]c(=O)c3cc(F)cc(c23)N[C@@H]1c1ccc(F)cc1 + Cc1c(S(C)(=O)=O)c(-c2cc(F)cc(N3CCN(c4ccc(NS(=O)(=O)c5ccc(NC(CCN6CCC(C(=O)OCCCP(=O)(O)O)CC6)CSc6ccccc6)c(S(=O)(=O)C(F)(F)F)c5)cc4)CC3)c2)c(-c2ccc(Cl)cc2)n1C(C)C
Second compound 0.0316 µM
  IC50: > 100 nM
Second compound 0.1 µM
  IC50: > 100 nM
Second compound 0.316 µM
  IC50: > 100 nM
Second compound 1 µM
  IC50: > 100 nM
Second compound 3.16 µM
  IC50: > 100 nM
Second compound 10 µM
  IC50: > 100 nM
Second compound 0.0316 µM, first compound 0.000316 µM
  viability, T/C: 105%
Second compound 0.0316 µM, first compound 0.001 µM
  viability, T/C: 92.2%
[1]
  viability, T/C: 105%
[2]
  viability, T/C: 96.2%
[3]
  viability, T/C: 95.3%
[4]
  viability, T/C: 86.4%
Second compound 0.1 µM, first compound 0.000316 µM
  viability, T/C: 86.4%
Second compound 0.1 µM, first compound 0.001 µM
  viability, T/C: 102%
[7]
  viability, T/C: 97.9%
[8]
  viability, T/C: 104%
[9]
  viability, T/C: 95.4%
[10]
  viability, T/C: 92.7%
Second compound 0.316 µM, first compound 0.000316 µM
  viability, T/C: 94.8%
Second compound 0.316 µM, first compound 0.001 µM
  viability, T/C: 99.7%
[13]
  viability, T/C: 100%
[14]
  viability, T/C: 84.2%
[15]
  viability, T/C: 96.7%
[16]
  viability, T/C: 80.5%
Second compound 1 µM, first compound 0.000316 µM
  viability, T/C: 96.5%
Second compound 1 µM, first compound 0.001 µM
  viability, T/C: 89.3%
[19]
  viability, T/C: 88.8%
[20]
  viability, T/C: 87.2%
[21]
  viability, T/C: 84.3%
[22]
  viability, T/C: 66.5%
Second compound 3.16 µM, first compound 0.000316 µM
  viability, T/C: 86.6%
Second compound 3.16 µM, first compound 0.001 µM
  viability, T/C: 76.2%
[25]
  viability, T/C: 80.3%
[26]
  viability, T/C: 75.4%
[27]
  viability, T/C: 70%
[28]
  viability, T/C: 64.5%
Second compound 10 µM, first compound 0.000316 µM
  viability, T/C: 81.5%
Second compound 10 µM, first compound 0.001 µM
  viability, T/C: 73.4%
[31]
  viability, T/C: 71.8%
[32]
  viability, T/C: 69.1%
[33]
  viability, T/C: 71.1%
[34]
  viability, T/C: 59.6%

## O=C(c1ccc(F)c(F)c1Nc1ccc(I)cc1F)N1CC(O)([C@@H]2CCCCN2)C1 + Cc1c(S(C)(=O)=O)c(-c2cc(F)cc(N3CCN(c4ccc(NS(=O)(=O)c5ccc(NC(CCN6CCC(C(=O)OCCCP(=O)(O)O)CC6)CSc6ccccc6)c(S(=O)(=O)C(F)(F)F)c5)cc4)CC3)c2)c(-c2ccc(Cl)cc2)n1C(C)C
Second compound 0.0316 µM
  IC50: 139 nM
Second compound 0.1 µM
  IC50: 133 nM
Second compound 0.316 µM
  IC50: 81.6 nM
Second compound 1 µM
  IC50: 51.8 nM
Second compound 3.16 µM
  IC50: 29.6 nM
Second compound 10 µM
  IC50: 20.9 nM
[1]
  viability, T/C: 91%
[2]
  viability, T/C: 89.6%
[3]
  viability, T/C: 77.3%
[4]
  viability, T/C: 54.5%
[5]
  viability, T/C: 35.2%
[6]
  viability, T/C: 16.4%
[7]
  viability, T/C: 115%
[8]
  viability, T/C: 103%
[9]
  viability, T/C: 76.5%
[10]
  viability, T/C: 59.6%
[11]
  viability, T/C: 30%
[12]
  viability, T/C: 15.1%
[13]
  viability, T/C: 98.2%
[14]
  viability, T/C: 98.7%
[15]
  viability, T/C: 68.1%
[16]
  viability, T/C: 47.4%
[17]
  viability, T/C: 21.9%
[18]
  viability, T/C: 10.4%
[19]
  viability, T/C: 88.8%
[20]
  viability, T/C: 70.5%
[21]
  viability, T/C: 61.5%
[22]
  viability, T/C: 40.3%
[23]
  viability, T/C: 16.7%
[24]
  viability, T/C: 7.35%
[25]
  viability, T/C: 82%
[26]
  viability, T/C: 63.5%
[27]
  viability, T/C: 52.6%
[28]
  viability, T/C: 28.2%
[29]
  viability, T/C: 10.3%
[30]
  viability, T/C: 3.52%
[31]
  viability, T/C: 78.6%
[32]
  viability, T/C: 66.5%
[33]
  viability, T/C: 39.3%
[34]
  viability, T/C: 22.3%
[35]
  viability, T/C: 7.23%
[36]
  viability, T/C: 3.38%
